Results from patent publication US20250049809A1, “INHIBITORS OF MUTANT IDH1 AND IDH2” (Board of Regents, The University of Texas System, priority 2023, published 2025).
Like-named read-outs stand apart in the source and are kept apart here.

Tests used:
mIDH1R132H/S280F = mIDH1R132H/S280F (Homo sapiens (Human), UniProt O75874, R132H/S280F); test: mIDH1 R132H/S280F enzymatic activity assay (NADPH fluorescence); format: biochemical; conditions: enzyme assay, 1 hour preincubation; read-out: IDH1R132H/S280F IC50
Sequence of mIDH1R132H/S280F (O75874 whole entry R132H/S280F): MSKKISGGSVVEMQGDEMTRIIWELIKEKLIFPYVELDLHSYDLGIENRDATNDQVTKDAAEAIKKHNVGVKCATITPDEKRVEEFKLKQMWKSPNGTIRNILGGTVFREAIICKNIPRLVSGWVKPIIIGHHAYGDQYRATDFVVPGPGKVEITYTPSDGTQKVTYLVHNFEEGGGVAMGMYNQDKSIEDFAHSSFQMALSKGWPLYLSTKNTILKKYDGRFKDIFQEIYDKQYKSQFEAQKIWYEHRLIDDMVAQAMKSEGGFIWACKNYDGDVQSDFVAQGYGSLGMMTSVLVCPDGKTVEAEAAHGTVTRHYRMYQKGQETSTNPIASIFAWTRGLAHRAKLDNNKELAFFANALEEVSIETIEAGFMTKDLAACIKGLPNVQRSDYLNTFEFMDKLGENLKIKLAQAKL
Method: (§1) The enzymatic activity of mIDH1R132H/S280F was assessed by measuring the fluorescence of the NADPH. The assay was performed in 384 well, white ProxiPlates (PerkinElmer, 6008280) in assay buffer containing 50 mM Hepes (Life Technologies, 15630080), 50 mM KCl (Teknova, P0327), 10 mM MgCl2 (Sigma-Aldrich, M1028), 1 mM DTT (Sigma-Aldrich, 43815), 0.02% BSA (Sigma-Aldrich, A3059) at pH 7.5. The final reaction volume was 10 μL. Stock solutions of the test compounds were prepared in 100% DMSO (Sigma, D2650) and serially diluted 1:3 using 100% DMSO. 50 nL of compound were then transferred to the assay plate using the Beckman Coulter ECHO 650 Acoustic Liquid Handler for a final DMSO concentration of 0.5%. 5 μL of a mIDH1R132H/S280F and NADPH (Santa Cruz, SC202725C) mixture were added to the assay plate for a final concentration of 2 nM and 10 PM, respectively. 5 μL of NADPH alone were added to negative control wells followed by a 1 hour preincubation at room temperature. 5 μL of alphaketoglutarate (Sigma-Aldrich, K1128) were added to the assay plate for a final concentration of 120 μM. Fluorescence of NADPH (excitation: 350 nm, emission 450 nm) was immediately measured kinetically for approximately 90 minutes using the BioTek Synergy Neo plate reader.

mIDH2R140Q = mIDH2R140Q (Homo sapiens (Human), UniProt P48735, R140Q); test: mIDH2 R140Q enzymatic activity assay (NADPH fluorescence); format: biochemical; conditions: enzyme assay, 1 hour preincubation; read-out: IDH2R140Q IC50
Sequence of mIDH2R140Q (P48735 40-452 R140Q): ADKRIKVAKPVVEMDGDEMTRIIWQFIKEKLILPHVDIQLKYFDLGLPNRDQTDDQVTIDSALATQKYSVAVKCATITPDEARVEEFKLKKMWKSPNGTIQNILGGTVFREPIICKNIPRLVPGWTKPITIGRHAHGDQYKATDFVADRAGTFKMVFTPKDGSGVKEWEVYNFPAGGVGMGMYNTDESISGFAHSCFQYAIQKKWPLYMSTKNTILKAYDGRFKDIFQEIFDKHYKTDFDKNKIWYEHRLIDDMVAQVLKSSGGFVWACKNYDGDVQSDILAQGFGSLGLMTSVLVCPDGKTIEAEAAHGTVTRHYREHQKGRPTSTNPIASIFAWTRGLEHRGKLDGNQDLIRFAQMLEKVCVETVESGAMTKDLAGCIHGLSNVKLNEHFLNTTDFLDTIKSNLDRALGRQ
Method: as §1, with “of mIDH2R140Q” for “of mIDH1R132H/S280F”, “a mIDH2R140Q” for “a mIDH1R132H/S280F”, “of 3” for “of 2”, “10 μM,” for “10 PM,”, “of 300” for “of 120”, “approximately 150” for “approximately 90”

U87 IDH1R132H = U87 IDH1R132H (Homo sapiens (Human), UniProt O75874, R132H); test: U87 IDH1 R132H 2-HG cellular assay; format: cell-based; conditions: extracellular 2HG, 24 h treatment, IDH1 mutant-U-87 isogenic cell line
Sequence of U87 IDH1R132H (O75874 whole entry R132H): as the sequence (O75874 whole entry R132H/S280F) above, with F280S counted along it
Method: The IDH1 mutant-U-87 isogenic cell line (ATCC HTB-14IG) used to test cellular inhibition is a glioma IDH1R132H mutant isogenic line derived from the parental U-87MG cell line. These cells are maintained in EMEM (ATCC 30-2003) culture media with 10% FBS and 10 U/mL Penicillin-Streptomycin. Twelve thousand cells are plated in polystyrene 384 well cell culture plates (Greiner Bio-One 781091) (12,000 cells/well) approximately 18 hours before compound treatment. Immediately before treatment, the cells are washed twice with PBS, followed by culture media replenishing. Cells are then treated with different concentrations of test compounds (5 μM to 0.3 pM) for 24 h. Extracellular 2HG levels are measured from cell culture media. For analyte extraction, 30 μL of culture media is transferred to 120 uL 100% acetonitrile in a deep 384 well plate and mixed well, followed by 5 min centrifugation at 3700 rpm at room temperature. 100 μL of supernatant is transferred to a flat bottom 384 well plate. Samples are run on the Agilent RapidFire-Mass Spectrometry instrument to detect 2HG levels. The samples from each well were aspirated for 600 ms and loaded onto a HILIC solid-phase extraction cartridge (Agilent) followed by a wash step for 3000 ms with 90% acetonitrile containing 5 mM ammonium acetate. Analytes were then eluted off the cartridge into the Agilent 6460 Triple Quad mass spectrometer with a 4500 ms elution step using 30% acetonitrile containing 5 mM ammonium acetate. The HILIC cartridge was then re-equilibrated by 90% acetonitrile containing 5 mM ammonium acetate for 500 ms. The 2HG was detected by an Agilent 6460 Triple Quad mass spectrometer in negative ion mode. Multiple reaction monitoring was used to quantify 2HG using the precursor ion and product ion at m/z 147.03 and 128.9, respectively. The percent activity of each sample is calculated by using DMSO and control compound treated references, and IC50 values are obtained using the GeneData Screener data analysis program.

TF1 IDH2R140Q = TF1 IDH2R140Q (Homo sapiens (Human), UniProt P48735, R140Q); test: TF1 IDH2 R140Q 2-HG cellular assay; format: cell-based; conditions: extracellular 2HG, 24 hr treatment, IDH2 mutant-TF1 isogenic cell line
Sequence of TF1 IDH2R140Q (P48735 40-452 R140Q): as the sequence (P48735 40-452 R140Q) above
Method: The IDH2 mutant-TF1 isogenic cell line (ATCC CRL-20031G) used to test cellular inhibition is an erythroblast cell line that was isolated from the marrow of a patient with erythroleukemia with the IDH2R140Q mutation. These cells are maintained in RPMI-1640 (ATCC 30-2001) culture media with 10% FBS, 10 U/mL Penicillin-Streptomycin, and 2 ng/mL GM-CSF. Thirty thousand cells are plated in polystyrene tissue culture treated 384 well cell culture plates (PerkinElmer 6007680) (30,000 cells/well) approximately 2 hours before compound treatment. Cells are then treated with different concentrations of test compounds (5 μM to 0.3 pM) for 24 hr. Extracellular 2HG levels are measured from cell culture media. For analyte extraction, 30 μL of culture media is transferred to 120 μL 100% acetonitrile in a deep 384 well plate and mixed well, followed by 5 min centrifugation at 3700 rpm at room temperature. 100 μL of supernatant is transferred to a flat bottom 384 well plate. Samples are run on the Agilent RapidFire-Mass Spectrometry instrument to detect 2HG levels. The samples from each well were aspirated for 600 ms and loaded onto a HILIC solid-phase extraction cartridge (Agilent) followed by a wash step for 3000 ms with 90% acetonitrile containing 5 mM ammonium acetate. Analytes were then eluted off the cartridge into the Agilent 6460 Triple Quad mass spectrometer with a 4500 ms elution step using 30% acetonitrile containing 5 mM ammonium acetate. The HILIC cartridge was then re-equilibrated by 90% acetonitrile containing 5 mM ammonium acetate for 500 ms. The 2HG was detected by an Agilent 6460 Triple Quad mass spectrometer in negative ion mode. Multiple reaction monitoring was used to quantify 2HG using the precursor ion and product ion at m/z 147.03 and 128.9, respectively. The percent activity of each sample is calculated by using DMSO and control compound treated references, and IC50 values are obtained using the GeneData Screener data analysis program.

[1] = rcm bond, DCE, 60.0 °C
[2] = rcm bond

IC50 (mIDH1R132H/S280F) [nM]	IC50 (mIDH2R140Q) [nM]	IC50 (U87 IDH1R132H) [nM]	IC50 (TF1 IDH2R140Q) [nM]	SMILES	further results
284	1840	0.31	342	C=CC(=O)N1CCN(C2CC/C=C\CCCCN3C(=O)OCc4cnc(nc43)N[C@@H](C)c3ccc2cc3)CC1 (stereo partly drawn) [Example 2, (3S,Z)-5-(4-acryloylpiperazin-1-yl)-3-methyl-1^1,1^4-dihydro-1^2H-2-aza-1(7,1)-pyrimido[4,5-d][1,3]oxazina-4(1,4)-benzenacyclotridecaphan-8-en-1^2-one]	–
–	–	0.26	1720	C=CC(=O)N1CCN(C2CCC/C=C/CN3C(=O)OCc4cnc(nc43)N[C@@H](C)c3ccc2cc3)CC1 (stereo partly drawn) [Example 6, (3S,Z)-5-(4-acryloylpiperazin-1-yl)-3-methyl-1^1,1^4-dihydro-1^2H-2-aza-1(7,1)-pyrimido[4,5-d][1,3]oxazina-4(1,4)-benzenacycloundecaphan-9-en-1^2-one]	–
922	4730	0.19	351	C=CC(=O)N1CCN(C2CCCCCCN3C(=O)OCc4cnc(nc43)N[C@@H](C)c3ccc2cc3)CC1 (single isomer, unassigned) [Example 8]	–
–	–	–	–	C[C@@H]1Nc2ncc3c(n2)N(CC=CCCCC(N2CCN(C(=O)OC(C)(C)C)CC2)c2ccc1cc2)C(=O)OC3 (stereo partly drawn)	ring closure, yield after HPLC ([1]; from C=CCCCC(c1ccc([C@H](C)Nc2ncc3c(n2)N(CC=C)C(=O)OC3)cc1)N1CCN(C(=O)OC(C)(C)C)CC1, 17-membered ring, Hoveyda-Grubbs II (2 x 0.1 eq), 8.67 mM, 15.0 h): 21%
–	–	–	–	C[C@@H]1Nc2ncc3c(n2)N(C(=O)OC3)[C@@H](C)CC=CCOCC(N2CCN(C(=O)OC(C)(C)C)CC2)c2ccc1cc2 (stereo partly drawn)	ring closure, yield after HPLC ([1]; from C=CCOCC(c1ccc([C@H](C)Nc2ncc3c(n2)N([C@@H](C)CC=C)C(=O)OC3)cc1)N1CCN(C(=O)OC(C)(C)C)CC1, 18-membered ring, Hoveyda-Grubbs II (0.1 eq), 8.24 mM, 9.0 h): 27.6%
83	4990	0.31	1220	C=CC(=O)N1CCN(C2COCCCC[C@H](C)N3C(=O)OCc4cnc(nc43)N[C@@H](C)c3ccc2cc3)CC1 (stereo partly drawn) [Example 10, (3S,12S)-5-(4-acryloylpiperazin-1-yl)-3,12-dimethyl-1^1,1^4-dihydro-1^2H-7-oxa-2-aza-1(7,1)-pyrimido[4,5-d][1,3]oxazina-4(1,4)-benzenacyclododecaphan-1^2-one]	–
295	1730	0.24	123	C=CC(=O)N1CCN(C2CCCCCCN3C(=O)OCc4cnc(nc43)N[C@@H](C)c3ccc2cc3)CC1 (single isomer, unassigned) [Example 7]	–
–	–	0.1	215	C=CC(=O)N1CCN(C2CCCC/C=C/CCN3C(=O)OCc4cnc(nc43)N[C@@H](C)c3ccc2cc3)CC1 (stereo partly drawn) [Example 5, (3S,E)-5-(4-acryloylpiperazin-1-yl)-3-methyl-1^1,1^4-dihydro-1^2H-2-aza-1(7,1)-pyrimido[4,5-d][1,3]oxazina-4(1,4)-benzenacyclotridecaphan-10-en-12-one]	–
94	1490	0.14	504	C=CC(=O)N1CCN(C2CCCCCC[C@H](C)N3C(=O)OCc4cnc(nc43)N[C@@H](C)c3ccc2cc3)CC1 (stereo partly drawn) [Example 9, (3S,12S)-5-(4-acryloylpiperazin-1-yl)-3,12-dimethyl-1^1,1^4-dihydro-1^2H-2-aza-1(7,1)-pyrimido[4,5-d][1,3]oxazina-4(1,4)-benzenacyclododecaphan-1^2-one]	–
103	1320	0.32	269	C=CC(=O)N1CCN(C2CCCCCCCCN3C(=O)OCc4cnc(nc43)N[C@@H](C)c3ccc2cc3)CC1 (stereo partly drawn) [Example 1, (3S)-5-(4-acryloylpiperazin-1-yl)-3-methyl-1^1,1^4-dihydro-1^2H-2-aza-1(7,1)-pyrimido[4,5-d][1,3]oxazina-4(1,4)-benzenacyclotridecaphan-1^2-one]	–
–	–	–	–	C[C@@H]1Nc2ncc3c(n2)N(CC=CCCCC(=O)c2ccc1cc2)C(=O)OC3	ring closure, isolated yield ([2]; from C=CCCCC(=O)c1ccc([C@H](C)Nc2ncc3c(n2)N(CC=C)C(=O)OC3)cc1, 17-membered ring, Grubbs II (2 portions), DCM, 2.04 mM, 40.0 °C, 84.0 h): 52%
–	–	–	–	C[C@@H]1Nc2ncc3c(n2)N(CC=CCCCCC(=O)c2ccc1cc2)C(=O)OC3	ring closure, isolated yield ([2]; from C=CCCCCC(=O)c1ccc([C@H](C)Nc2ncc3c(n2)N(CC=C)C(=O)OC3)cc1, 18-membered ring, Grubbs II (0.1 eq), DCM, 2.6 mM, 45.0 °C, 48.0 h): 36.5%
–	–	–	–	C[C@@H]1Nc2ncc3c(n2)N(CCCCC=CCCC(N2CCN(C(=O)OC(C)(C)C)CC2)c2ccc1cc2)C(=O)OC3 (stereo partly drawn)	ring closure, isolated yield ([2]; from C=CCCCCN1C(=O)OCc2cnc(N[C@@H](C)c3ccc(C(CCC=C)N4CCN(C(=O)OC(C)(C)C)CC4)cc3)nc21, 19-membered ring, Hoveyda-Grubbs II (0.21 eq), DCE, 16.6 mM, 60.0 °C, 9.0 h): 49.2%
